Data from US10624944B2, “Anti-inflammatory peptides for treating non-alcoholic steatohepatitis (NASH)” (Creative Bio-Peptides Inc., priority 2017, dated 2020).
Where two headings read alike, the source gives them in different places. Square brackets hold non-standard residues; d marks the D form. Ends that are not written are not given here.

How the values were obtained:
[1] = tested on: inflammatory cytokine levels; details: Hu; cited from earlier work
TLR4/MyD88 [2] = details: Rat; cited from earlier work
[3] = tested on: high fat diet mouse model of NAFLD; details: cited from earlier work
CCR2 [4] = target: T1, CCR2 (Homo sapiens, UniProt P41597); assay: CCL2 (MCP-1)-elicited chemotaxis of human monocytes; assay type: cell-based; set-up: endogenous in cells; host or cells: human monocytes; details: FIG. 3; methods similar to FIG. 2; low concentration
Procedure: Monocytes were treated with the indicated doses of RAP-103 for 30 min before chemotaxis against human CCL2 (MCP-1) or CCL4 (MIP-1β) (both 50 ng/mL) for 90 min. Data (chemotactic index) are presented as mean±SEM. The chemotactic index for MCP-1 without RAP-103 was 2.5-3.5 times over control, whereas for MIP-1 ? without RAP-103, it was approximately 2 times over control. Data are presented as mean±SEM. (*P<0.05, **P<0.01 vs RAP-103 untreated). Data are from [Padi, 2012, FIG. 1]. […] Dual-chemokine CCR2/CCR5 receptor antagonists may have added therapeutic value by blocking multiple inflammatory pathways.
Methods are similar to those in FIG. 2.

CCR2 [5] = target: T1, CCR2; details: 30 min pretreatment; CCL2 50 ng/mL for 90 min; FIG. 2; cited from earlier work
[6] = tested on: chemokines, chemokine receptors and cytokines; details: Rat, oral gavage 0.05-1 mg/kg for 7 days, nerve injured
From the text: The specific experimental details are provided in Padi, 2012 (7).

CCR5 = CCR5 (Homo sapiens, UniProt P51681); details: 30 min pretreatment; CCL4 50 ng/mL for 90 min; FIG. 2; cited from earlier work
[7] = tested on: human monocyte derived immature dendritic cells (iDCs)
From the text: In liver, TLR4 is expressed by all parenchymal and non-parenchymal cell types, and contributes to tissue damage caused by a variety of etiologies. TLR4 signaling occurs in hepatic stellate cells (HSCs), the major fibrogenic cell type in injured liver, and mediates an inflammatory phenotype leading to fibrogenesis.

TLR4/MyD88 [8] = details: iDCs treated at 10^-12 M for 30 min, then LPS 100 ng/ml, analyzed after 48 hrs
Procedure: To determine whether all-D-TTNYT (SEQ ID NO:1) blocks maturation of antigen-presenting dendritic cells, human PBMC's were isolated from peripheral blood by Ficoll-Paque centrifugation and then monocytes were isolated by negative selection using immunobeads (Miltenyi). Human monocyte derived immature dendritic cells (iDCs) were then generated by treating monocytes with GM-CSF/IL4.
After 30 min LPS (100 ng/ml) was added to the cells and cells were analyzed after 48 hrs. for surface maturation markers using fluorescent labeled antibodies by flow cytometry.

response to bradykinin = details: amounts up to 50,000 times the standard challenge of bradykinin; cited from earlier work
[9] = listed as all-D-pentapeptide TTNYT

T1 sequence (P41597 whole entry): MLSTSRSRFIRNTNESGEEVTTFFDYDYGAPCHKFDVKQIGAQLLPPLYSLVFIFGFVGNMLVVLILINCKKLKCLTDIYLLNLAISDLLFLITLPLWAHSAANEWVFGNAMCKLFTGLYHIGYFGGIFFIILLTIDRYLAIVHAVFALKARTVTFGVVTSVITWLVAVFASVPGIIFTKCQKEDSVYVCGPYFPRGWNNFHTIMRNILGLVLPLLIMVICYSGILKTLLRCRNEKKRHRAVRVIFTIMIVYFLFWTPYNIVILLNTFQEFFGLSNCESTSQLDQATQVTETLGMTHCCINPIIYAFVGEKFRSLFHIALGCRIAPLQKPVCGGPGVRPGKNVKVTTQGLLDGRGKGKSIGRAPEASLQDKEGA
Sequence of CCR5 (P51681 whole entry): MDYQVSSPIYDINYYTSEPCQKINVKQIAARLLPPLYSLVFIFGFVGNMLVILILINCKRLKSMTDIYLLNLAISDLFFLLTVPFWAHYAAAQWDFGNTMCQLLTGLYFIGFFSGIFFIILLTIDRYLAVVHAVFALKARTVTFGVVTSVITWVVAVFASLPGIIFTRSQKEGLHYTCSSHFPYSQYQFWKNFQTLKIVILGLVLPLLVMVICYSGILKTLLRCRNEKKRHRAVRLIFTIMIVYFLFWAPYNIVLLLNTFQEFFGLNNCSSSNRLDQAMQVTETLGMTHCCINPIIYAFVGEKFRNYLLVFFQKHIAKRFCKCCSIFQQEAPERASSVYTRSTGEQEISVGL

Substance: Dala1-peptide T-amide [DAPTA]
- Change of ICAM-1 [1]: decrease
- Change of IL-1 [1]: decrease
- Change of IL-6 [1]: decrease
- Change of IL-8 [1]: decrease
- Change of IL-23 [1]: decrease
- Change of NFkB [1]: decrease
- Change of STAT3 [1]: decrease
- Change of TNFα [1]: decrease
- Change of TLR4/MyD88 (TLR4/MyD88 [2]): decrease

Substance: Maraviroc
- CCL5/RANTES expression [3]: significantly lower
- hepatic steatosis [3]: ameliorated hepatic steatosis

Substance: all-D-NTSYR ([dN][dT][dS][dY][dR]) [all-D-amino acid pentapeptide NTSYR]
- CCL2 human monocyte chemotaxis (CCR2 [4]): antagonists

Substance: all-D-SSTYR ([dS][dS][dT][dY][dR]) [all-D-amino acid pentapeptide SSTYR]
- CCL2 human monocyte chemotaxis (CCR2 [4]): antagonists

Substance: all-D-TTNYT
- CCL2 (MCP-1) human monocyte chemotaxis (chemotactic index) (CCR2 [5]): dual-antagonist
- Change of CCR2 [6]: decrease
- Change of CCR5 [6]: decrease
- Change of IL-6 [6]: decrease
- Change of IL-β [6]: decrease
- Change of MCP-1 (CCL2) [6]: decrease
- Change of MIP-1α (CCL3) [6]: decrease
- Change of TNFα [6]: decrease
- Change of CCR2 [6, 9]: lowering expression
- Change of CCR5 [6, 9]: lowering expression
- Change of IL-β [6, 9]: lowering expression
- Change of MCP-1 (CCL2) [6, 9]: lowering expression
- Change of MIP-1α (CCL3) [6, 9]: lowering expression
- Change of TNFα [6, 9]: lowering expression
- CCL4 (MIP-1β) human monocyte chemotaxis (chemotactic index) (CCR5): dual-antagonist
- DC maturation of the four markers caused by LL37 [7]: no effect
- expression of maturation markers CD86, HLA-DR, CD58 and ICAM1 induced by TLR4/MyD88 activation (LPS) (TLR4/MyD88 [8]): reduces expression of all the maturation markers

Substance: all-D-TTSYT ([dT][dT][dS][dY][dT]) [all-D-amino acid pentapeptide TTSYT]
- CCL2 human monocyte chemotaxis (CCR2 [4]): antagonists

Substance: all-D-bradykinin
- inhibition of the response to bradykinin or bradykinin-like effect (response to bradykinin): neither any inhibition of the response to bradykinin, or any bradykinin-like effect
